The values that follow come from a melting point compilation (Tetko et al.; mined from patent text by program, amines drawn as free bases though some values may be those of a salt).

For orientation: melting point means the temperature, or range, at which the solid turns liquid.

SMILES strings stand for the structures.

For `Cc1c(NC(=O)c2ccc(C#CC3(O)CCC3)cc2)ccc2cc(CNCC(C)(C)C)n(C)c12`, the melting point lay within 232 to 233 °C.

Compound `CCCCc1cn(Cc2ccc(-c3ccccc3C(=O)OC)cc2)c2cc(C(=O)N3CCCC3)ccc2c1=O` came in with a melting point of 191 °C.

Compound `COCCOc1c(F)c(Oc2ccc(S(C)(=O)=O)nc2)cc2cc(C3=NCC(CC(N)=O)S3)[nH]c12` (centres undefined) came in with a melting point of 143 to 144 °C.

`CC(C=O)=Cc1cc([N+](=O)[O-])ccc1Cl` had a melting point of 99 to 102 °C.

Regarding `C#CCOC(=O)c1ccc(SC(C)CCCC(C)C)cc1` (centres undefined), the melting point fell in the range of 130 to 131 °C.

With `Cc1cc(C)c2c(c1)[C@H]1CN(C)CC[C@@H]1CC2=O` (relative stereo), the melting point was > 250 °C.

Compound `CCc1onc(-c2ccc(Cl)cc2)c1CCC(=O)O` showed a melting point of 164 to 165 °C.

The compound `Cc1cc(N2CCOCC2)nc(N)c1N` had a melting point of 97 to 108 °C.

In the case of `CC1(C)SCCN(S(=O)(=O)c2ccc(-c3ccc(Br)cc3)cc2)C1C(=O)O` (centres undefined), the melting point lay in the range of 178 to 180 °C.

`O=C(CS)N[C@@H](CS)C(=O)O` returned a melting point of 121 °C.

On to `CCC1SC(NC)=NN1C(=O)C(C)(C)C` (centres undefined), for which the melting point was in the range of 78.5 to 80 °C.

As to `CS(=O)(=O)CC(=O)NCCn1ccc2ncnc(Nc3ccc(Oc4cccc(OC(F)(F)F)c4)c(Cl)c3)c21`, the melting point fell in the range of 133 to 135 °C.

In turn, `CC(=O)c1cc(Nc2nc(N)nc(N)n2)cc(C(C)=O)c1` gave a melting point of 271 to 272 °C.

`CC(C)(C)OC(=O)CC[C@H](NC(=O)c1ccc(NCc2cnc(N)c(C#N)n2)cc1)C(=O)OC(C)(C)C`: the melting point was in the range of 71 to 78 °C.

`CCCCCCCCCCCCCCc1c[nH]c(C=O)c1`: the melting point lay in the range of 70 to 71 °C.

`O=C1c2cccc(OCc3ccccc3)c2C(=O)c2c(Cl)ccc(Cl)c21` showed a melting point of 122 to 126 °C.

`O=C1N=CC(OCC2CC2)(C(F)(F)F)c2cc(Cl)ccc2N1` (centres undefined) registered a melting point of 185 to 186 °C.

With `C=C(CS(C)(=O)=O)C(=O)O`, the melting point is 147 to 149 °C.

For the compound `c1ccc2c(c1)Cc1cc(C3(Cn4cncn4)OCCO3)ccc1-2`, the melting point stood at 187 °C.

In turn, `N=C(Nc1ccc(CN(Cc2ccccc2)Cc2ccccc2)cc1)c1cccs1` came in with a melting point of 127 to 128 °C.

Regarding `C#CCOC(=O)Cc1c(C)nn(-c2cnccc2C)c1-c1ccccc1`, the melting point came out at 106 °C.

As for `CCCCNc1cc(-c2c(-c3cccc(C)c3)nc3cccnn23)ccn1`, the melting point was in the range of 128 to 129 °C.

`CCCN(CCC)c1ccc(CCC(=O)O)c2c1CCCN2C(=O)OC(C)(C)C` showed a melting point of 84 to 86 °C.

For the compound `CCCCC/C(=C\C=C\C(=O)O)c1ccc(OC)cc1`, the melting point was in the range of 86.5 to 87.5 °C.

Take `CCOC(=O)c1c(Nc2ccc(F)cc2[N+](=O)[O-])sc2c1CCCC2`: the melting point is 140 to 142 °C.

`CC(C)(C)CNS(=O)(=O)c1cccc(NC(=O)c2cnn3c(C(F)F)cc(-c4ccc(C(F)(F)F)cc4)nc23)c1`: the melting point worked out at 208 °C.

As to `O=C1NC(=O)C(c2ccc(Br)o2)O1` (centres undefined), the melting point was 126 to 129 °C.

Regarding `CNC(=O)NCCn1c(-c2ccc(N3CCOCC3)cc2)csc1=Nc1ccc(F)cc1`, the melting point is 191 to 194 °C.

`N#Cc1cnc2cc3c(cc2c1Nc1ccc(F)c(Cl)c1)NCCO3`: the melting point was in the range of 244 to 245 °C.

`CN(C)CCCCCCNCc1ccc(-c2cc3ncnc(Nc4ccc5[nH]ccc5c4)c3s2)cc1` gave a melting point of 134 to 148 °C.

The compound `CCNC(=O)[C@@H](C[C@H](O)[C@H](CC1CCCCC1)NC(=O)[C@H](Cc1cscn1)NC(=O)OC(C)(C)C)C(C)(C)O` showed a melting point of 189 to 191 °C.

The compound `CCOC(=O)c1c(Cn2cncn2)nc2sc3c(c2c1-c1ccc(OC)c(OC)c1)CCN(C(=O)c1ccccc1)C3` registered a melting point of 193 to 194 °C.

Turning to `CC(c1oc2ccccc2c(=O)c1-c1cccc(F)c1)n1nc(-c2csc(C=O)c2)c2c(N)ncnc21` (centres undefined), the melting point is 192 to 195 °C.

In turn, `Cc1cccc(C)c1CNc1cc(C2=NCCN2)cc2c1nc(C)n2C` displayed a melting point of 273 to 274 °C.
